Data: patent publication US20250018046A1, “COMPOUNDS FOR TARGETING DEGRADATION OF IRAK4 PROTEINS” (BIOGEN MA INC, priority 2021, published 2025)

Target: T1, IRAK4 (Homo sapiens, UniProt Q9NWZ3)
T1 construct: knocking-in a HiBiT fusion tag into the C-terminal of the IRAK4 gene in 293T cells; host or cells: 293T cells, knock-in of HiBiT at the endogenous IRAK4 locus
T1 sequence (Q9NWZ3 1-460): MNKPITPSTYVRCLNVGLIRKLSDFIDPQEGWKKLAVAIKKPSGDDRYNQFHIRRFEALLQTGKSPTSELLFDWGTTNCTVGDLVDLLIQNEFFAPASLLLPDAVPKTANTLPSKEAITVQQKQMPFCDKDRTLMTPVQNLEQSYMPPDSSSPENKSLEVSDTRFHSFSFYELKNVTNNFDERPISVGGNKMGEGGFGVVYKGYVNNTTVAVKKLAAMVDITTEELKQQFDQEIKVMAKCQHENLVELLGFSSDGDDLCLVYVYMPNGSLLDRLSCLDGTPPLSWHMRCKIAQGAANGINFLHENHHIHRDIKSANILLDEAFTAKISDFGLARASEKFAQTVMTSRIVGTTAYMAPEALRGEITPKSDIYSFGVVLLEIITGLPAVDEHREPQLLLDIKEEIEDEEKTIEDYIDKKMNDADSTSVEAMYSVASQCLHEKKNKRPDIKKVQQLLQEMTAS
Assay: IRAK4 degradation assay using the HiBiT Method
Type: cell-based
Details: 293T cells expressing HiBiT-tagged IRAK4; 6-hour incubation; Nano-Glo HiBiT Lytic Assay luminescence
Procedure: Selected compounds were tested in an IRAK4 degradation assay using the HiBiT Method.
Phenol red-free Dulbecco's modified Eagle medium (DMEM) and fetal bovine serum (FBS) were purchased from Gibco (Grand Island, NY, USA). The Nano-Glo© HiBiT Lytic Assay System was purchased from Promega (Madison, WI, USA). Cell culture flasks and 384-well microplates were acquired from VWR (Radnor, PA, USA). The 293T cell line was engineered by knocking-in a HiBiT fusion tag into the C-terminal of the IRAK4 gene in 293T cells (Synthego, Redwood City, CA, USA).
IRAK4 degradation was measured via the quantification of luminescent signals using the Nano-Glo© HiBiT Lytic Assay kit. Test compounds were added to 384-well plates in duplicate using an 11-point half-log dilution series, with the highest dose set at 10 mM. 293T cells expressing HiBiT-tagged IRAK4 were then added into 384-well plates at a cell density of 10,000 cells per well. The plates were kept at 37° C. with 5% CO2 for 6 hours. Cells that were treated only with DMSO served as the negative control; wells that contained only assay media served as the background control. After the 6-hour incubation, Nano-Glo® HiBiT Lytic Assay reagents were added to the cells. Luminescence was acquired using an EnVision® Multilabel Reader (PerkinElmer, Santa Clara, CA, USA).

SMILES | DC50 [µM]
CC(C)Oc1cc2nc(C3CCN(CC(=O)N4CCN(CCc5ccc(NC6CCC(=O)NC6=O)cc5)CC4)CC3)cn2cc1NC(=O)c1cccc(C(F)(F)F)n1 (centres unmarked) [Example 19, N-[2-[1-[2-[4-[2-[4-[(2,6-dioxo-3-piperidyl)amino]phenyl]ethyl]piperazin-1-yl]-2-oxo-ethyl]-4-piperidyl]-7-isopropoxy-imidazo[1,2-a]pyridin-6-yl]-6-(trifluoromethyl) pyridine-2-carboxamide] | 0.01 to 0.1
CC(C)Oc1cc2nc(C3CCN(CC(=O)N4CCN(Cc5ccc(NC6CCC(=O)NC6=O)cc5)CC4)CC3)cn2cc1NC(=O)c1cccc(C(F)(F)F)n1 (centres unmarked) [Example 20, N-[2-[1-[2-[4-[[4-[(2,6-dioxo-3-piperidyl)amino]phenyl]methyl]piperazin-1-yl]-2-oxo-ethyl]-4-piperidyl]-7-isopropoxy-imidazo[1,2-a]pyridin-6-yl]-6-(trifluoromethyl) pyridine-2-carboxamide] | 0.1 to 0.5
CC(C)Oc1cc2nc(C3CCN(CC(=O)N4CCC(c5ccc(OC6CCC(=O)NC6=O)cc5)CC4)CC3)cn2cc1NC(=O)c1cccc(C(F)(F)F)n1 (centres unmarked) [Example 21, N-[2-[1-[2-[4-[4-[(2,6-dioxo-3-piperidyl)oxy]phenyl]-1-piperidyl]-2-oxo-ethyl]-4-piperidyl]-7-isopropoxy-imidazo[1,2-a]pyridin-6-yl]-6-(trifluoromethyl)pyridine-2-carboxamide] | 0.01 to 0.1
CC(C)Oc1cc2nc(C3CCN(CC(=O)N4CCN(c5ccc(C6CCC(=O)NC6=O)cc5)CC4)CC3)cn2cc1NC(=O)c1cccc(C(F)(F)F)n1 (centres unmarked) [Example 22, N-[2-[1-[2-[4-[4-(2,6-dioxo-3-piperidyl)phenyl]piperazin-1-yl]-2-oxo-ethyl]-4-piperidyl]-7-isopropoxy-imidazo[1,2-a]pyridin-6-yl]-6-(trifluoromethyl)pyridine-2-carboxamide] | 0.01 to 0.1
CC(C)Oc1cc2nc(C3CCN(CC(=O)N4CCC(c5ccc(NC6CCC(=O)NC6=O)cc5)CC4)CC3)cn2cc1NC(=O)c1cccc(C(F)(F)F)n1 (centres unmarked) [Example 23, N-[2-[1-[2-[4-[4-[(2,6-dioxo-3-piperidyl)amino]phenyl]-1-piperidyl]-2-oxo-ethyl]-4-piperidyl]-7-isopropoxy-imidazo[1,2-a]pyridin-6-yl]-6-(trifluoromethyl)pyridine-2-carboxamide] | 0.01 to 0.1
CC(C)Oc1cc2nc(C3CCN(CC(=O)N4CCC(c5ccc(NC6CCC(=O)NC6=O)cc5F)CC4)CC3)cn2cc1NC(=O)c1cccc(C(F)(F)F)n1 (centres unmarked) [Example 24, N-[2-[1-[2-[4-[4-[(2,6-dioxo-3-piperidyl)amino]-2-fluoro-phenyl]-1-piperidyl]-2-oxo-ethyl]-4-piperidyl]-7-isopropoxy-imidazo[1,2-a]pyridin-6-yl]-6-(trifluoromethyl)pyridine-2-carboxamide] | 0.01 to 0.1
CC(C)Oc1cc2nc(C3CCN(CC(=O)N4CCC(c5ccc(CN6CCC(=O)NC6=O)cc5)CC4)CC3)cn2cc1NC(=O)c1cccc(C(F)(F)F)n1 [Example 25, N-[2-[1-[2-[4-[4-[(2,4-dioxohexahydropyrimidin-1-yl)methyl]phenyl]-1-piperidyl]-2-oxo-ethyl]-4-piperidyl]-7-isopropoxy-imidazo[1,2-a]pyridin-6-yl]-6-(trifluoromethyl) pyridine-2-carboxamide] | 0.1 to 0.5
CC(C)Oc1cc2nc(C3CCN(CC(=O)N4CCN(c5ccc6c(N7CCC(=O)NC7=O)nn(C)c6c5)CC4)CC3)cn2cc1NC(=O)c1cccc(C(F)(F)F)n1 [Example 26, N-[2-[1-[2-[4-[3-(2,4-dioxohexahydropyrimidin-1-yl)-1-methyl-indazol-6-yl]piperazin-1-yl]-2-oxo-ethyl]-4-piperidyl]-7-isopropoxy-imidazo[1,2-a]pyridin-6-yl]-6-(trifluoromethyl)pyridine-2-carboxamide] | 0.1 to 0.5
